Measured values: US12727600B2, “Staurosporine⋅emamectin benzoate suspending agent and preparation method and application thereof” (PLANT PROTECTION RESEARCH INSTITUTE OF GUANGDONG ACADEMY OF …, priority 2020, dated 2026)
Read-outs that look alike come from different tables or passages of the source.

Tested on: second instar larvae of Spodoptera exigua
Experiment: Indoor toxicity by Potter spray method; co-toxicity coefficient method of Sun Y. P.
Assay type: in vivo
Settings: median lethal concentration
Description: The method for determining the indoor toxicity of the pesticides involved in the present invention to the second instar larvae of Spodoptera exigua is as follows:
The test method is the Potter spray method: a Potter spray tower is used to spray the vegetable leaves on both sides with 1 mL of the amount of the pesticides treating the leaf on each side, and the sedimentation is performed for 30 seconds. There are 3 replicates for each treatment for 30 larvae (2nd instar larvae of Spodoptera exigua), and a treatment with the clean water is used as the control. The petri dish after sprayed is placed in a constant-temperature incubator (temperature being 25° C., relative humidity being 85%). The death of the testing pests is investigated and recorded after treatment for 24, 48, and 72 hours. During the treatment, the petri dish is kept moist, and fresh Cantonese cabbage leaves are added timely as pest's food.
The formula (1) is used to calculate the mortality of pests, the Abbott formula is used to calculate the corrected mortality, and EXCEL is used to analyze the virulence regression results. Formula (2) is the calculation formula of Abbott. Mortality (%)=Number of dead insects/Number of testing worms before experiment*100 (1) […]

Compound	LC50 (Spodoptera exigua, mass ratio Staurosporine:Emamectin benzoate, read-out: LC50) [µg/mL]	LC50 [µg/mL]
CN[C@@H]1C[C@H]2O[C@@](C)([C@@H]1OC)n1c3ccccc3c3c4c(c5c6ccccc6n2c5c31)C(=O)NC4 [10:0, Staurosporine]	40.3	–
Emamectin benzoate [0:10]	–	0.14
